In the CheMixHub drug solubility set:

Assay: xn = mol fraction of the nth substance listed, in the solute-free solvent

NCCS(=O)(=O)O + O + CC#N
solubility (g/100 g solution)
Conditions | 298.15 K | 303.15 K | 308.15 K | 313.15 K | 318.15 K
x2 = 0.6949 | 0.528 | 0.562 | 0.597 | 0.644 | 0.864
x2 = 0.7736 | 1.15 | 1.28 | 1.37 | 1.54 | 1.75
x2 = 0.8417 | 2.09 | 2.47 | 2.66 | 2.99 | 3.69
x2 = 0.9011 | 3.76 | 4.25 | 4.87 | 6.01 | 7.16
x2 = 0.9535 | 6.1 | 7.22 | 8.46 | 9.89 | 11.6

Nc1cccc2ccncc12 + CCO + O
solubility (g/100 g solution)
Conditions | 278.15 K | 283.15 K | 288.15 K | 293.15 K | 298.15 K | 303.15 K | 308.15 K | 313.15 K | 318.15 K | 323.15 K
x2 = 0.04165 | 0.0455 | 0.0527 | 0.0604 | 0.0712 | 0.0812 | 0.0941 | 0.11 | 0.128 | 0.147 | 0.171
x2 = 0.08908 | 0.0727 | 0.084 | 0.0965 | 0.113 | 0.129 | 0.149 | 0.174 | 0.202 | 0.233 | 0.271
x2 = 0.1436 | 0.111 | 0.129 | 0.148 | 0.172 | 0.197 | 0.228 | 0.266 | 0.308 | 0.355 | 0.413
x2 = 0.2068 | 0.162 | 0.187 | 0.215 | 0.25 | 0.287 | 0.332 | 0.387 | 0.448 | 0.517 | 0.602
x2 = 0.2812 | 0.211 | 0.244 | 0.286 | 0.338 | 0.39 | 0.45 | 0.52 | 0.604 | 0.697 | 0.809
x2 = 0.3698 | 0.271 | 0.315 | 0.371 | 0.441 | 0.51 | 0.589 | 0.685 | 0.794 | 0.922 | 1.08
x2 = 0.4772 | 0.308 | 0.371 | 0.437 | 0.522 | 0.618 | 0.722 | 0.846 | 0.987 | 1.14 | 1.33
x2 = 0.6101 | 0.364 | 0.432 | 0.522 | 0.614 | 0.718 | 0.835 | 0.975 | 1.13 | 1.33 | 1.56
x2 = 0.7788 | 0.383 | 0.459 | 0.559 | 0.658 | 0.77 | 0.902 | 1.06 | 1.25 | 1.47 | 1.73

CC(=O)Oc1cccc2c1C(=O)c1c(OC(C)=O)cc(C(=O)O)cc1C2=O + CCOC(C)=O + CC(C)O
solubility (g/100 g solution)
Conditions | 273.15 K | 278.15 K | 283.15 K | 288.15 K | 293.15 K | 298.15 K | 303.15 K | 308.15 K | 313.15 K
x2 = 0.07045 | 0.0064 | 0.00841 | 0.0107 | 0.014 | 0.0178 | 0.0215 | 0.0261 | 0.0309 | 0.0362
x2 = 0.1457 | 0.00881 | 0.0112 | 0.0142 | 0.0177 | 0.0216 | 0.0261 | 0.031 | 0.0367 | 0.0431
x2 = 0.2262 | 0.0102 | 0.0132 | 0.0164 | 0.0199 | 0.0246 | 0.0305 | 0.0368 | 0.0448 | 0.0539
x2 = 0.3126 | 0.0121 | 0.0158 | 0.0197 | 0.0245 | 0.0299 | 0.0359 | 0.0439 | 0.0522 | 0.062
x2 = 0.4055 | 0.0132 | 0.0175 | 0.0224 | 0.0279 | 0.0338 | 0.0406 | 0.0489 | 0.0583 | 0.069
x2 = 0.5057 | 0.0164 | 0.0205 | 0.0253 | 0.0305 | 0.0368 | 0.0435 | 0.0512 | 0.0598 | 0.0693
x2 = 0.6141 | 0.0209 | 0.026 | 0.0317 | 0.0375 | 0.0445 | 0.0521 | 0.0612 | 0.0702 | 0.0806
x2 = 0.7318 | 0.0254 | 0.0303 | 0.0368 | 0.0441 | 0.0516 | 0.06 | 0.0692 | 0.0796 | 0.0906
x2 = 0.8599 | 0.0219 | 0.0263 | 0.0318 | 0.0379 | 0.0443 | 0.0515 | 0.0599 | 0.0686 | 0.0779

O=C1CCC(C(=O)N2CSCC2C(=O)O)N1 (stereo not given) + CO + CC(C)=O
solubility (g/100 g solution)
Conditions | 278.15 K | 283.15 K | 288.15 K | 293.15 K | 298.15 K | 303.15 K | 308.15 K | 313.15 K | 318.15 K | 323.15 K
x2 = 0.1676 | 0.03 | 0.0418 | 0.06 | 0.08 | 0.115 | 0.159 | 0.227 | 0.34 | 0.497 | 0.708
x2 = 0.3118 | 0.045 | 0.0699 | 0.101 | 0.147 | 0.241 | 0.346 | 0.532 | 0.773 | 1.12 | 1.54
x2 = 0.4372 | 0.0669 | 0.0956 | 0.145 | 0.224 | 0.317 | 0.432 | 0.62 | – | 1.24 | 1.72
x2 = 0.5471 | 0.74 | 0.834 | 0.94 | 1.08 | 1.19 | 1.33 | 1.48 | 1.67 | 1.88 | 2.12
x2 = 0.6444 | 0.813 | 0.929 | 1.04 | 1.2 | 1.37 | 1.58 | 1.81 | 2.07 | 2.37 | 2.73
x2 = 0.7311 | 0.964 | 1.09 | 1.21 | 1.38 | 1.56 | 1.76 | 1.99 | 2.24 | 2.54 | 2.94
x2 = 0.8087 | 1.07 | 1.14 | 1.29 | 1.48 | 1.69 | 1.92 | 2.19 | 2.49 | 2.82 | 3.21
x2 = 0.8788 | 1.02 | 1.15 | 1.28 | 1.48 | 1.69 | 1.92 | 2.18 | 2.49 | 2.81 | 3.18
x2 = 0.9422 | 0.998 | 1.13 | 1.25 | 1.42 | 1.64 | 1.87 | 2.14 | 2.43 | 2.77 | 3.13

NCCS(=O)(=O)O + O + CC(O)CO
solubility (g/100 g solution)
Conditions | 298.15 K | 303.15 K | 308.15 K | 313.15 K | 318.15 K
x2 = 0.8085 | 0.283 | 0.373 | 0.413 | 0.484 | 0.694
x2 = 0.8636 | 0.605 | 0.646 | 0.75 | 0.914 | 1.26
x2 = 0.9079 | 0.929 | 1 | 1.36 | 1.64 | 2.12
x2 = 0.9441 | 1.72 | 2.03 | 2.51 | 3.03 | 3.67
x2 = 0.9744 | 3.42 | 4.2 | 5.01 | 5.6 | 6.88

CN1CCC(N(Cc2cccs2)c2ccccc2)CC1 + CN(C)C=O + O
solubility (g/100 g solution)
Conditions | 278.15 K | 283.15 K | 288.15 K | 293.15 K | 298.15 K | 303.15 K | 308.15 K | 313.15 K | 318.15 K | 323.15 K
x2 = 0.02666 | 0.234 | 0.248 | 0.263 | 0.283 | 0.308 | 0.336 | 0.367 | 0.396 | 0.432 | 0.473
x2 = 0.05806 | 0.678 | 0.715 | 0.75 | 0.8 | 0.862 | 0.931 | 1.01 | 1.08 | 1.16 | 1.26
x2 = 0.09556 | 1.25 | 1.32 | 1.38 | 1.47 | 1.58 | 1.7 | 1.83 | 1.95 | 2.11 | 2.27
x2 = 0.1412 | 1.74 | 1.84 | 1.95 | 2.07 | 2.23 | 2.4 | 2.59 | 2.76 | 2.98 | 3.21
x2 = 0.1978 | 2.05 | 2.19 | 2.34 | 2.51 | 2.71 | 2.93 | 3.16 | 3.38 | 3.65 | 3.96
x2 = 0.27 | 2.31 | 2.46 | 2.65 | 2.87 | 3.12 | 3.38 | 3.66 | 3.93 | 4.27 | 4.64
x2 = 0.3652 | 2.53 | 2.75 | 2.99 | 3.25 | 3.54 | 3.83 | 4.16 | 4.52 | 4.89 | 5.35
x2 = 0.4965 | 2.78 | 3.02 | 3.28 | 3.6 | 3.95 | 4.31 | 4.69 | 5.09 | 5.53 | 6.09
x2 = 0.6893 | 2.78 | 3.07 | 3.4 | 3.73 | 4.13 | 4.53 | 4.98 | 5.42 | 5.95 | 6.54
